According to patent publication US10350272B2, “Calcitonin analogues for treating diseases and disorders” (KeyBioscience AG, priority 2015, dated 2019):
Where no end group is shown, it is not given here.

Tests used:
rats = settings: s.c., single dose 1000 mU/rat or 0.5-50 mU/rat over 12 weeks, dose dependently; cited from earlier work
cultured rat hepatocytes = settings: cited from earlier work
[1] = amylin dosage 100 μg kg^−1, compared with saline; cited from earlier work
[2] = system: liver sections from HFD-fed rats; assay: Oil-Red-O staining of frozen liver sections; assay type: in vivo, rat
Experimental: At termination of the study of Example 2 the rat livers were embedded using snap freezing in OCT, and then sectioned using a cryomicrotome. Sections were prepared from four groups, KBP-042 in HFD rats, KBP-089 in HFD rats, control HFD rats, and a lean rat comparison.
The sections were stained using Oil-Red-O staining. […] The lipid accumulation in pair-fed KBP-089 liver exceeded KBP-089 treated rats with 66.5% (p<0.001) and was not significant different from vehicle (0.6711). Statistical test performed was one-way ANOVA with Dunnet's post test for multiple comparisons. **p<0.01, ***p<0.001.

Which results are given for “salmon calcitonin [synthetic salmon calcitonin]”?
serum cholesterol levels (rats): reduced; serum lipoprotein levels (rats): reduced; serum triglyceride levels (rats): reduced; incorporation of acetate into cholesterol and triglycerides (cultured rat hepatocytes): reduced

For “amylin (KCNTATCATQRLANFLVRSSNNLGPVLPPTNVGSNTY; ends and bridges not checked; cysteine pairing not given here; UniProt P12969 38-74, looked up) [amylin administered alone in Kusakabe et al (2011), reference compound]”, which tissue triglyceride content [1] is on record?
Its tissue triglyceride content is “neither L nor A decreased”.

Which results are given for “AcCSNLSTCMLGRLSQDLHRLQTYPKTDVGANAP-NH2 (Ac-CSNLSTCMLGRLSQDLHRLQTYPKTDVGANAP-NH2; ends and bridges not checked) [KBP-089]”?
excess of lipid accumulation in pair-fed KBP-089 liver over KBP-089 treated rats (Oil-Red-O) ([2]; 2.5 μg/kg, p<0.001): 66.5%; decrease of HFD-induced lipid accumulation in liver compared to vehicle (Oil-Red-O) ([2]; HFD rats, 2.5 μg/kg daily): 155.3%

B1: leptin (protein, UniProt P50596 22-167, looked up)
Leptin: VPIHKVQDDTKTLIKTIVTRINDISHTQSVSARQRVTGLDFIPGLHPILSLSKMDQTLAVYQQILTSLPSQNVLQIAHDLENLRDLLHLLAFSKSCSLPQTRGLQKPESLDGVLEASLYSTEVVALSRLQGSLQDILQQLDLSPEC
notes: leptin administered alone in Kusakabe et al (2011)
For B1, which tissue triglyceride content [1] is on record?
The tissue triglyceride content was “neither L nor A decreased”.
